Measurements published in patent US6599541B1, “Composition for treatment of drug resistant bacterial infections and a method of treating drug resistant bacterial infections” (priority 1999, dated 2003).
In brackets after ≈: the same amount, converted by molar mass. Like-named read-outs stand apart in the source and are kept apart here.

Key:
[1] = test system: Klebsiella pneumoniae; experiment: Broth Macro Dilution Test, MIC and MBC; format: cell-based; conditions: antibiotic alone
Text: (§1) This was done by estimation of the Minimum Inhibitory Concentration (MIC) and Minimum Bactericidal Concentration (MBC) on the selected isolates by a Broth Macro Dilution Test.
(§2) While conducting these tests, the guidelines given by the National committee of Clinical Laboratory Standards 1995 protocols were employed. Cation Supplemented Mueller Hinton Broth was used as medium for all organisms excepting for β haemolytic streptococci for which, Todd Hewit's Broth was used as medium.
(§3) The following concentrations of antibiotics were tested to determine MIC and MBC.
(§4) Co-trimoxazole (Sulpharnethoxazole/Trimethoprim/μg/μg per ml)
(§5) A minimum inhibitory concentration is the lowest level of antibiotic needed to cause an inhibition to bacterial growth in culture medium whereas, the minimum bactericidal concentration is the lowest concentration of antibiotic to achieve a 100% killing of bacteria. Thus, these two values are the practical indices of intensity of bacterial resistance to a given antibiotic. On the other hand, a break-even point of any antibiotic indicates the attainable blood levels after an administration of full dose, in human/animal body. Thus, this point indicates the practical dosage of administering any given antibiotic effectively and beyond this point, even if an antibiotic is found to act effectively in experimental situation—such dose cannot be administered in a clinical situation.

[2] = test system: Salmonella senftenberg; experiment: Broth Macro Dilution Test, MIC and MBC; format: cell-based; conditions: Example 13: strain from burn wound swab culture, antibiotic alone
Text: as §1, §2, §3, §4, §5

[3] = test system: Enterobacter spp.; experiment: Broth Macro Dilution Test, MIC and MBC; format: cell-based; conditions: antibiotic alone
Text: as §1, §2, §3, §5

[4] = test system: Escherichia coli; experiment: Broth Macro Dilution Test, MIC and MBC; format: cell-based; conditions: resistant to Ciprofloxacin, antibiotic alone, read-out: minimum bactericidal concentration (MBC)
Text: as §1, §2, §3, §5

[5] = highest serum concentration reached after the maximum therapeutic dose in-vivo; cited from earlier work
[6] = test system: Klebsiella pneumoniae; experiment: Broth tube test of NE with antibiotic at break point, percentage of killing; format: cell-based; conditions: for bacterial growth in control tubes: NE and antibiotic added individually
Experimental: (§6) Since all the study isolates are resistant to the concerned antibiotics, each antibiotic is taken at its breakpoint concentration, (the highest serum concentration of that particular antibiotic reached after the maximum therapeutic dose in-vivo). The break points for various antibiotics are as follows:
(§7) Preparation of Neem Extract: Stock solution of neem extract (1 mg/ml) was prepared, filtered and autoclaved. It was used in 4 concentrations—1000 μg/ml; 500 μg/ml; 250 μg/ml; 125 μg/ml.
(§8) A set of four tubes with variable concentrations of the extract is prepared and to each of these tubes, the break point concentration of antibiotics is added. Now, these sets are inoculated with the study isolate in the same manner as per the broth dilution procedure. A set of six controls is inoculated with each isolate—in parallel with the main experiment.
(§9) 2. Only antibiotic solution
(§10) 3. Medium and antibiotic solution with inoculum
(§11) 5. Only Neem extract at 250 μg/ml
(§12) 6. Medium with Neem Extract and inoculum
(§13) Reading the test All the tests and control tubes are observed for visible turbidity of growth first. Since all the study isolates were earlier confirmed to be resistant to the antibiotics, the bacterial growth is expected at the breakpoint concentration of the antibiotic. Any reduction in the turbidity as compared to the control tube no. 3 is noted as a possible additive or synergistic effect of the neem extract with the antibiotic. In absence of such effect, the tubes may show growth matching with the control no. 4.
(§14) In case of a positive result, further sub-culturing was taken up, on solid media for colony counts with a calibrated loop. The colony counts could be noted by a semi quantitative method as 101 to 10^5 CFU/ml (Colony forming units). This is finally expressed as the percentage of killing as compared to the colony count obtained with control no. 4. Usually control tubes no. 3, 4 and 6 had similar colony counts.

[7] = test system: Enterobacter spp.; experiment: as above; format: cell-based; conditions: for bacterial growth in control tubes: NE and antibiotic added individually; for bactericidal effect: antibiotic 4 μg/ml (break point) combined with NE 125, 250, 500, 1000 μg/ml
Experimental: as §6, §7, §8, §9, §10, §11, §12, §13, §14

[8] = test system: Salmonella senftenberg; experiment: as above; format: cell-based; conditions: Example 13 strain
Experimental: as §6, §7, §8, §9, §10, §11, §12, §13, §14

[9] = test system: Staphylococcus aureus; experiment: as above; format: cell-based; conditions: Example 12 strain
Experimental: as §6, §7, §8, §9, §10, §11, §12, §13, §14

[10] = test system: Escherichia coli; experiment: as above; format: cell-based; conditions: for bacterial growth in control tubes: NE and antibiotic added individually; for bactericidal effect: antibiotic 4 μg/ml (break point) combined with NE 125, 250, 500, 1000 μg/ml
Experimental: as §6, §7, §8, §9, §10, §11, §12, §13, §14

[11] = test system: Staphylococcus aureus; experiment: Broth Macro Dilution Test, MIC and MBC; format: cell-based; conditions: Example 12: strain from non-healing burn wound swab culture, antibiotic alone
Experimental: as §1
Cation Supplemented Mueller Hinton Broth was used as medium for all organisms excepting for β haemolytic streptococci for which, Todd Hewit's Broth was used as medium.
as §3, §5

[12] = test system: Pseudomonas aerugenosa; experiment: Agar Dilution Method of Sensitivity testing, NE + antibiotic; format: cell-based; conditions: for Growth Patterns after addition of NE: no. of cultures +++ (growth) / Growth Patterns after addition of NE: no. of cultures −−− (inhibition of growth): 16 resistant Pseudomonas strains, 48 hours
Experimental: Two kinds of investigations were carried-out using these bacterial isolates—using an Agar Dilution Method of Sensitivity testing.
i) The culture medium (Mueller Hinton Agar) was melted and distributed into a number of test tubes.
ii) The stock solution of NE was dispensed into these test tubes in four different concentrations viz.
iii) In the same medium, one of the antibiotics under investigation was also added so as to provide a variable concentration (at break-even point concentration) as described below:
iv) The culture medium containing NE extract+the antibiotic were poured into petri dishes and allowed to solidify.
v) The resistant bacterial strains were inoculated onto these plates, incubated for 48 hours and the growth patterns were studied on each plate.

[13] = Example 11: isolate from Endotracheal catheter tip culture
[14] = Example 3 strain, antibiotic at break point in combination with NE, uniform at 1000, 500, 250, 125 μg/ml
[15] = Example 4 strain, antibiotic at break-even concentration with NE, uniform at all four NE concentrations
[16] = antibiotic at break-even point + NE 125 μg/mL
[17] = antibiotic at break-even point + NE 250 μg/mL
[18] = antibiotic at break-even point + NE 500 μg/mL
[19] = antibiotic at break-even point + NE 1000 μg/mL
[20] = Example 3: strain from non-healing burn wound
[21] = Example 4: strain from wound swab culture

O=C(O)c1cn(C2CC2)c2cc(N3CCNCC3)c(F)cc2c1=O [Ciprofloxacin]
MBC ([1]; Klebsiella pneumoniae, Example 3: strain from non-healing burn wound, read-out: MBC): > 64 µg/mL | MIC ([1]; Klebsiella pneumoniae, Example 3: strain from non-healing burn wound, read-out: MIC): 16 µg/mL (≈ 48.3 µM) | MBC ([1]; Klebsiella pneumoniae, Example 4: strain from wound swab culture, read-out: MBC): > 128 µg/mL | MIC ([1]; Klebsiella pneumoniae, Example 4: strain from wound swab culture, read-out: MIC): 32 µg/mL (≈ 96.6 µM) | MBC ([1]; Klebsiella pneumoniae, Example 5: isolate from Endotracheal Catheter Tip culture, read-out: minimum bactericidal concentration (MBC)): > 128 µg/mL | MIC ([1]; Klebsiella pneumoniae, Example 5: isolate from Endotracheal Catheter Tip culture, read-out: minimum inhibitory concentration (MIC)): 32 µg/mL (≈ 96.6 µM) | MBC ([1]; Klebsiella pneumoniae, Example 6: isolate from Endotracheal Catheter tip culture, read-out: minimum bactericidal concentration (MBC)): > 128 µg/mL | MIC ([1]; Klebsiella pneumoniae, Example 6: isolate from Endotracheal Catheter tip culture, read-out: minimum inhibitory concentration (MIC)): 32 µg/mL (≈ 96.6 µM) | MBC ([1]; Klebsiella pneumoniae, Example 7: isolate from endotracheal catheter tip culture, read-out: minimum bactericidal concentration (MBC)): > 128 µg/mL | MIC ([1]; Klebsiella pneumoniae, Example 7: isolate from endotracheal catheter tip culture, read-out: minimum inhibitory concentration (MIC)): 32 µg/mL (≈ 96.6 µM) | MBC ([2]; Salmonella enterica, read-out: MBC): > 128 µg/mL | MIC ([2]; Salmonella enterica, read-out: MIC): 32 µg/mL (≈ 96.6 µM) | MBC ([3]; Enterobacter, Example 10: isolate from Endotracheal Catheter Tip culture, read-out: minimum bactericidal concentration (MBC)): > 128 µg/mL | MIC ([3]; Enterobacter, Example 10: isolate from Endotracheal Catheter Tip culture, read-out: minimum inhibitory concentration (MIC)): 32 µg/mL (≈ 96.6 µM) | minimum bactericidal concentration (MBC) [3, 13]: > 128 µg/mL | minimum inhibitory concentration (MIC) [3, 13]: 32 µg/mL (≈ 96.6 µM) | MBC ([4]; Example 1: isolate from wound infection): 64 µg/mL (≈ 193 µM) | MBC ([4]; Example 2: isolate from endotracheal catheter tip culture): > 128 µg/mL | break point [5]: 4 µg/mL | killing [6, 14]: 99% | killing [6, 15]: 90% | bacterial growth in control tubes ([6]; Example 5 isolate): unhindered | bactericidal effect ([6]; Example 5 isolate, antibiotic 4 μg/ml (break-even point) combined with NE 125, 250, 500, 1000 μg/ml): 90% | bacterial growth in control tubes ([6]; Example 6 isolate): unhindered | bactericidal effect ([6]; Example 6 isolate, antibiotic 4 μg/ml (break point) combined with NE 125, 250, 500, 1000 μg/ml): 80% | bacterial growth in control tubes ([6]; Example 7 isolate): unhindered | bactericidal effect ([6]; Example 7 isolate, antibiotic 4 μg/ml (break point) combined with NE 125, 250, 500, 1000 μg/ml): 50% | bacterial growth in control tubes ([7]; Example 10 isolate): unhindered | bactericidal effect ([7]; Example 10 isolate): 80% | bacterial growth in control tubes ([7]; Example 11 isolate): unhindered | bactericidal effect ([7]; Example 11 isolate): 50% | killing ([8]; antibiotic added to 1000 μg/ml NE): 50% | killing effect ([8]; antibiotic with 500 μg/ml NE): somewhat low | killing effect ([8]; antibiotic with NE at other concentrations (below 500 μg/ml)): not found | killing ([9]; antibiotic 4 μg/ml in combination with 250 μg/ml and 125 μg/ml NE): 80% | bactericidal effect ([9]; antibiotic 4 μg/ml with 1000 μg/ml, 500 μg/ml of NE): 20% | bacterial growth in control tubes ([10]; Example 1 isolate): unhindered | bactericidal effect ([10]; Example 1 isolate): 100% | bacterial growth in control tubes ([10]; Example 2 isolate): unhindered | bactericidal effect ([10]; Example 2 isolate): 40% | MBC [11]: > 128 µg/mL | MIC [11]: 32 µg/mL (≈ 96.6 µM)

CCN1CCN(C(=O)N[C@@H](C(=O)N[C@@H]2C(=O)N3[C@@H]2SC(C)(C)[C@@H]3C(=O)O)c2ccccc2)C(=O)C1=O [Piperacillin]
Growth Patterns after addition of NE: no. of cultures +++ (growth) [12, 16]: 3 | Growth Patterns after addition of NE: no. of cultures −−− (inhibition of growth) [12, 16]: 13 | Growth Patterns after addition of NE: no. of cultures +++ (growth) [12, 17]: 3 | Growth Patterns after addition of NE: no. of cultures −−− (inhibition of growth) [12, 17]: 13 | Growth Patterns after addition of NE: no. of cultures +++ (growth) [12, 18]: 3 | Growth Patterns after addition of NE: no. of cultures −−− (inhibition of growth) [12, 18]: 13 | Growth Patterns after addition of NE: no. of cultures +++ (growth) [12, 19]: 3 | Growth Patterns after addition of NE: no. of cultures −−− (inhibition of growth) [12, 19]: 13 | isolates sensitized to the antibiotic by NE ([12]; of 16 resistant strains, NE + antibiotic): 13

Co-trimoxazole
MBC [1, 20]: > 16/304 | MIC [1, 20]: 8/152 | MBC [1, 21]: 16/304 | MIC [1, 21]: 8/152 | MBC [2]: 16/304 | MIC [2]: 8/152 | killing [6, 14]: 50% | killing [6, 15]: 90% | killing ([8]; antibiotic in combination with NE, uniform in all four concentrations): 60%
